Measured values as given in PubChem BioAssay (NCI).
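Interpolation was linear, between the two tested concentrations surrounding the appropriate level; five concentrations were tested over 48 hours in 96-well plates. TGI denotes the concentration required for complete inhibition of growth.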

Key:
Experiment in all cases: inhibition of tumour cell growth, NCI panel, 48 h
[1] = tested on: A498 renal
[2] = tested on: CAKI-1 renal
[3] = tested on: HCT-116 colon
[4] = tested on: HCT-15 colon
[5] = tested on: NCI-H23 lung
[6] = tested on: NCI-H522 lung
[7] = tested on: OVCAR-8 ovarian
[8] = tested on: SF-295 CNS
[9] = tested on: SN12C renal
[10] = tested on: UO-31 renal

Cc1cc(S(=O)(=O)Nc2nnc3cc(C(F)(F)F)cc(C)n23)c(S)cc1Cl
TGI [1]: 37.2 µM
TGI [2]: > 100 µM
TGI [3]: > 100 µM
TGI [4]: > 100 µM
TGI [5]: > 100 µM
TGI [6]: > 100 µM
TGI [7]: > 100 µM
TGI [8]: > 100 µM
TGI [9]: > 100 µM
TGI [10]: > 100 µM

O=C(NCCNCCO)N/N=C/c1ccc(Cl)cc1
TGI [1]: > 100 µM
TGI [2]: > 100 µM
TGI [3]: > 100 µM
TGI [4]: > 100 µM
TGI [5]: > 100 µM
TGI [6]: > 100 µM
TGI [7]: > 100 µM
TGI [8]: > 100 µM
TGI [9]: > 100 µM
TGI [10]: > 100 µM

CSc1ncc2c(n1)-c1ccccc1OC2N1CCCC1 (stereo not drawn)
TGI [1]: 26.1 µM
TGI [2]: 83.4 µM
TGI [3]: > 100 µM
TGI [4]: > 100 µM
TGI [5]: > 100 µM
TGI [6]: > 100 µM
TGI [7]: > 100 µM
TGI [8]: > 100 µM
TGI [9]: > 100 µM
TGI [10]: > 100 µM

O=C1[C@@H]2Cc3c([nH]c4ccccc34)C(C3CCCCC3)N2C(=O)[C@@H]2CCCN12 (stereo partly drawn)
TGI [1]: > 100 µM
TGI [2]: 80.8 µM
TGI [3]: 74.5 µM
TGI [4]: > 100 µM
TGI [5]: > 100 µM
TGI [6]: 63.1 µM
TGI [7]: > 100 µM
TGI [8]: 61.1 µM
TGI [9]: 63.4 µM
TGI [10]: > 100 µM

CSc1nncc(-c2cc3c(c(SC)n2)CCC3)n1
TGI [2]: > 100 µM
TGI [3]: > 100 µM
TGI [4]: > 100 µM
TGI [5]: > 100 µM
TGI [6]: > 100 µM
TGI [7]: 57.1 µM
TGI [8]: > 100 µM
TGI [9]: > 100 µM
TGI [10]: > 100 µM

O=C(O)c1ccccc1/C=N\NC1=NCCCCN1
TGI [1]: > 100 µM
TGI [2]: > 100 µM
TGI [3]: > 100 µM
TGI [4]: > 100 µM
TGI [5]: > 100 µM
TGI [6]: > 100 µM
TGI [7]: > 100 µM
TGI [8]: > 100 µM
TGI [9]: > 100 µM
TGI [10]: > 100 µM

COc1ccc(OC)c2cc(Cc3ccc(N(C)C)cc3)c(=O)c(Cc3ccc(N(C)C)cc3)cc12
TGI [1]: 96.2 µM
TGI [2]: > 100 µM
TGI [3]: > 100 µM
TGI [4]: > 100 µM
TGI [5]: > 100 µM
TGI [6]: 89.9 µM
TGI [7]: > 100 µM
TGI [8]: > 100 µM
TGI [9]: > 100 µM
TGI [10]: > 100 µM

COC(=O)[C@@H]1N2C(=S)N(c3ccccc3)C(=O)[C@H]2SC1(C)C
TGI [1]: > 100 µM
TGI [2]: > 100 µM
TGI [3]: > 100 µM
TGI [4]: > 100 µM
TGI [5]: > 100 µM
TGI [6]: > 100 µM
TGI [7]: > 100 µM
TGI [8]: > 100 µM
TGI [9]: > 100 µM
TGI [10]: > 100 µM

Cc1ccc(S(=O)(=O)N2CCN(CCN(C)CCN3CCN(S(=O)(=O)c4ccc(C)cc4)CC3)CC2)cc1
TGI [1]: 31.8 µM
TGI [2]: 40.5 µM
TGI [3]: 35 µM
TGI [4]: 31.9 µM
TGI [5]: 44.8 µM
TGI [6]: 38.9 µM
TGI [7]: 32.7 µM
TGI [8]: 31.9 µM
TGI [9]: 37.6 µM
TGI [10]: 26.8 µM

O=C1OS2(OCc3cccc4cccc2c34)c2ccccc21 (stereo not drawn)
TGI [1]: > 100 µM
TGI [2]: > 100 µM
TGI [3]: > 100 µM
TGI [4]: > 100 µM
TGI [5]: > 100 µM
TGI [6]: > 100 µM
TGI [8]: > 100 µM
TGI [9]: > 100 µM
TGI [10]: > 100 µM

CCCCCCCCCCCCCCCCNc1nc(=O)n(C2CC(O)C(CO)O2)cc1F (stereo not drawn)
TGI [2]: 23.3 µM
TGI [3]: 23.5 µM
TGI [4]: 26.1 µM
TGI [5]: 18 µM
TGI [6]: 20.7 µM
TGI [7]: 23.9 µM
TGI [8]: 30.1 µM
TGI [9]: 26.9 µM
TGI [10]: 18.8 µM

C=C1C[C@]23C[C@@]1(O)CC[C@H]2[C@@]12C=C[C@H](O)[C@@](C)(C(=O)O1)[C@H]2[C@@H]3C(=O)O
TGI [2]: > 100 µM
TGI [3]: > 100 µM
TGI [4]: > 100 µM
TGI [5]: > 100 µM
TGI [6]: > 100 µM
TGI [8]: > 100 µM
TGI [9]: > 100 µM
TGI [10]: > 100 µM

CC(C)(C)OC(=O)N1C(OP(=O)(Oc2ccccc2)Oc2ccccc2)=COc2cccnc21
TGI [2]: > 100 µM
TGI [3]: > 100 µM
TGI [4]: > 100 µM
TGI [5]: > 100 µM
TGI [6]: > 100 µM
TGI [7]: > 100 µM
TGI [8]: > 100 µM
TGI [9]: > 100 µM
TGI [10]: > 100 µM

O=C(N=Nc1ccccc1Br)NNc1ccccc1Br
TGI [1]: > 100 µM
TGI [2]: > 100 µM
TGI [3]: > 100 µM
TGI [4]: > 100 µM
TGI [5]: > 100 µM
TGI [6]: > 100 µM
TGI [7]: > 100 µM
TGI [9]: > 100 µM
TGI [10]: > 100 µM

O=C1NC(N/N=C\c2ccccc2)=N/C1=C/c1ccc(Cl)cc1
TGI [2]: > 100 µM
TGI [3]: 71.4 µM
TGI [4]: 62.7 µM
TGI [5]: 39.9 µM
TGI [6]: 44.4 µM
TGI [7]: 49.6 µM
TGI [8]: 78.8 µM
TGI [9]: 54.6 µM
TGI [10]: 36.2 µM

NC(=O)CC(Nc1ncc2c(n1)-c1ccccc1OC2)C(=O)O (stereo not drawn)
TGI [2]: > 100 µM
TGI [3]: > 100 µM
TGI [4]: > 100 µM
TGI [5]: > 100 µM
TGI [6]: > 100 µM
TGI [7]: > 100 µM
TGI [8]: > 100 µM
TGI [9]: > 100 µM
TGI [10]: > 100 µM

CCOC(=O)C(Cc1ccccc1)(Cc1ccc(O)cn1)NC(=O)c1ccccc1 (stereo not drawn)
TGI [2]: 87 µM
TGI [3]: 68.4 µM
TGI [4]: > 100 µM
TGI [5]: > 100 µM
TGI [6]: 53.8 µM
TGI [7]: > 100 µM
TGI [8]: > 100 µM
TGI [10]: > 100 µM

CC1(C)C2CC(c3ccncc3)ON2C(C)(C)N1O (stereo not drawn)
TGI [2]: > 100 µM
TGI [3]: > 100 µM
TGI [4]: > 100 µM
TGI [5]: > 100 µM
TGI [7]: > 100 µM
TGI [8]: > 100 µM
TGI [9]: > 100 µM
TGI [10]: > 100 µM

COc1cc2ccnc3c2c(c1O)N(C)C=C3
TGI [1]: 23.4 µM
TGI [2]: 20.6 µM
TGI [3]: 16.4 µM
TGI [4]: > 64.2 µM
TGI [5]: 37.5 µM
TGI [7]: > 46.8 µM
TGI [8]: 28.6 µM
TGI [9]: > 61.2 µM
TGI [10]: 22.3 µM

NC(CCCCNC(=O)OCc1ccccc1)C(=O)NC(CCCCNC(=O)OCc1ccccc1)C(=O)ON1C(=O)CCC1=O (stereo not drawn)
TGI [1]: > 100 µM
TGI [3]: > 100 µM
TGI [4]: > 100 µM
TGI [5]: > 100 µM
TGI [7]: > 100 µM
TGI [9]: > 100 µM
TGI [10]: > 100 µM

OC1OC(c2ccco2)C(F)(F)C(F)(F)C1(F)F (stereo not drawn)
TGI [1]: > 100 µM
TGI [3]: > 100 µM
TGI [4]: > 100 µM
TGI [7]: > 100 µM
TGI [8]: > 100 µM
TGI [9]: > 100 µM
TGI [10]: > 100 µM

CN1C2CC(=O)CC1[C@@H]1OC(c3ccccc3)O[C@H]21 (stereo partly drawn)
TGI [2]: > 100 µM
TGI [3]: > 100 µM
TGI [4]: > 100 µM
TGI [5]: > 100 µM
TGI [6]: > 100 µM
TGI [7]: > 100 µM
TGI [8]: > 100 µM
TGI [9]: > 100 µM
TGI [10]: > 100 µM

CCOC(=O)C(C(=O)Cc1ccccc1)c1ccccc1 (stereo not drawn)
TGI [2]: > 100 µM
TGI [3]: > 100 µM
TGI [4]: > 100 µM
TGI [5]: > 100 µM
TGI [6]: > 100 µM
TGI [7]: > 100 µM
TGI [8]: > 100 µM
TGI [9]: > 100 µM
TGI [10]: > 100 µM
